Measurements published in ChEMBL document CHEMBL1811878, “Heteroatom-substituted analogues of orphan nuclear receptor small heterodimer partner ligand and apoptosis inducer (E)-4-[3-(1-Adamantyl)-4-hydroxyphenyl]-3-chlorocinnamic acid” (J Med Chem, 2011).
Values after ≈ are worked out from the molar mass of the structure shown. Active and inactive are the calls of the source. The rule behind the calls is not given here.

What was measured:
[1] = target: T1, Retinoic acid receptor alpha (Homo sapiens) (UniProt P10276); experiment: Transcriptional activation of human RARalpha at 1 uM by (TREpal)2-tk-CAT reporter gene assay
T1 sequence (whole entry): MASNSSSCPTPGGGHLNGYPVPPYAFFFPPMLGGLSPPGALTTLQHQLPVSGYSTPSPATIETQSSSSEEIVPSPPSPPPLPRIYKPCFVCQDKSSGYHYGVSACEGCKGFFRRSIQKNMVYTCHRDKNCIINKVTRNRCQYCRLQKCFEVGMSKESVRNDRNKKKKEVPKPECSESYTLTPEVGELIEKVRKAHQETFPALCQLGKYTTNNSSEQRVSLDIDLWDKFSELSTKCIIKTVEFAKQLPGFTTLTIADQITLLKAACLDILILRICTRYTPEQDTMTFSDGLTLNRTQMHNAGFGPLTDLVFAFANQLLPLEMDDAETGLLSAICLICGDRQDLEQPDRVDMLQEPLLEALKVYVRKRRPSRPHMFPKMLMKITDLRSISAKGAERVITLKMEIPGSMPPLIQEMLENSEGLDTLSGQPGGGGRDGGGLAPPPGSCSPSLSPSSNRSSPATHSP

[2] = target: T2, Retinoic acid receptor beta (Homo sapiens) (UniProt P10826); experiment: Transcriptional activation of human RARbeta at 1 uM by (TREpal)2-tk-CAT reporter gene assay
T2 sequence (whole entry): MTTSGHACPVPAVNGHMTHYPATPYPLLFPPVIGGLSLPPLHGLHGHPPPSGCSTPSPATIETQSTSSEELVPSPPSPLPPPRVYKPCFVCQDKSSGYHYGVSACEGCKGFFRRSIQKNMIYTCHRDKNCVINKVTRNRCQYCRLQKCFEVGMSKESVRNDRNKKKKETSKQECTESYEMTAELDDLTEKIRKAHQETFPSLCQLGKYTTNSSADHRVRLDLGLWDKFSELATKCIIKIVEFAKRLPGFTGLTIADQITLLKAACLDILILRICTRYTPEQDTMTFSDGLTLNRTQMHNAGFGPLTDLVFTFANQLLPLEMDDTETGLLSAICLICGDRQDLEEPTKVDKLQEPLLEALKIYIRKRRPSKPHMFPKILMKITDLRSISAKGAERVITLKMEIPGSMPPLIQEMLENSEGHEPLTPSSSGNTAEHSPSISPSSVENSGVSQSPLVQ

[3] = Induction of apoptosis in retinoid-resistant p53 null human HL60R cells assessed as DNA fragmentation at 1 uM after 24 hrs by acridine orange staining method; type: functional
[4] = target: T1, Retinoic acid receptor alpha (Homo sapiens); experiment: Transcriptional activation of human RARalpha at 0.1 uM by luciferase reporter gene assay relative to control
[5] = system: OVCAR-3; experiment: Antiproliferative activity against human OVCAR3 cell; type: functional, cell-based
[6] = target: T2, Retinoic acid receptor beta (Homo sapiens); experiment: Transcriptional activation of human RARbeta at 0.1 uM by luciferase reporter gene assay relative to control
[7] = target: T3, Retinoic acid receptor gamma (Homo sapiens) (UniProt P13631); experiment: Transcriptional activation of human RARgamma at 0.1 uM by luciferase reporter gene assay relative to control
T3 sequence (whole entry): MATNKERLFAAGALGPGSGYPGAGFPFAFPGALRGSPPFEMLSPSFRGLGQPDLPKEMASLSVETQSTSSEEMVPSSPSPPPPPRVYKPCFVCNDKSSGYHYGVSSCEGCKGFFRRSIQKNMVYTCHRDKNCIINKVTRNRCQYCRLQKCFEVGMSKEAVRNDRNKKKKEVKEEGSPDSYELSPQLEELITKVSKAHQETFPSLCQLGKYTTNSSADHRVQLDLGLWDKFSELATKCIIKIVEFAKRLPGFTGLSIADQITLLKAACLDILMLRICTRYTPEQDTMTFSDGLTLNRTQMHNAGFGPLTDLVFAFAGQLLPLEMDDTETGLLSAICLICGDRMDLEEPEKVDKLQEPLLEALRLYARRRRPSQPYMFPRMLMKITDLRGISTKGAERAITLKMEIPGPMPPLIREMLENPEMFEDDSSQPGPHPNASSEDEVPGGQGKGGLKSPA

[8] = Induction of apoptosis in retinoid-resistant p53 null human HL60R cells assessed as DNA fragmentation at 0.1 uM after 24 hrs by acridine orange staining method; type: functional
[9] = target: T3, Retinoic acid receptor gamma (Homo sapiens); experiment: Transcriptional activation of human RARgamma at 1 uM by (TREpal)2-tk-CAT reporter gene assay
[10] = system: Mus musculus; experiment: Toxicity in ICR-SCIDS mouse assessed as decrease in body weight at 20 mg/kg, iv qd administered at a 25% increment in dose each day for 7 days measured on day 8 relative to control; type: organism-based; design: dose 20 mg/kg, route intravenous; scale not given: the % may be the effect or the level left; details: in vivo, 168 h
[11] = system: Mus musculus; experiment: Toxicity in ICR-SCIDS mouse assessed as increase in body weight at 20 mg/kg, iv qd administered at a 25% increment in dose each day for 7 days measured on day 1; type: organism-based; design: dose 20 mg/kg, route intravenous; details: in vivo, 168 h
[12] = system: HT-29; experiment: Induction of apoptosis in human HT-29 cells assessed as decrease in ATP level at 10 uM after 72 hrs by luminescence assay; type: functional
[13] = system: Mus musculus; experiment: Toxicity in ICR-SCIDS mouse assessed as increase in body weight at 20 mg/kg, iv qd administered at a 25% increment in dose each day for 7 days measured on day 4; type: organism-based; design: dose 20 mg/kg, route intravenous; details: in vivo, 168 h
[14] = system: KG-1; experiment: Induction of apoptosis in human KG1 cells expressing p53 gene assessed as DNA fragmentation at 1 uM after 48 hrs by acridine orange staining method; type: functional
[15] = system: PC-3; experiment: Induction of apoptosis in human PC3 cells assessed as decrease in ATP level at 5 uM after 72 hrs by luminescence assay; type: functional; design: scale not given: the % may be the effect or the level left
[16] = system: A549; experiment: Induction of apoptosis in human A549 cells assessed as decrease in ATP level at 5 uM after 72 hrs by luminescence assay; type: functional; design: scale not given: the % may be the effect or the level left
[17] = system: PC-3; experiment: Induction of apoptosis in human PC3 cells assessed as decrease in ATP level at 10 uM after 72 hrs by luminescence assay; type: functional, cell-based
[18] = system: HT-29; experiment: Induction of apoptosis in human HT-29 cells assessed as decrease in ATP level at 5 uM after 72 hrs by luminescence assay; type: functional; design: scale not given: the % may be the effect or the level left
[19] = system: PC-3; experiment: Induction of apoptosis in human PC3 cells assessed as decrease in ATP level after 72 hrs by luminescence assay; type: functional, cell-based
[20] = system: KG-1; experiment: Growth inhibition in human KG1 cells expressing p53 gene at 1 uM after 48 hrs by MTT assay; type: functional; details: KG-1, 48 h, read-out: GI
[21] = system: A549; experiment: Induction of apoptosis in human A549 cells assessed as decrease in ATP level at 10 uM after 72 hrs by luminescence assay; type: functional, cell-based
[22] = Induction of apoptosis in mouse MMTV-Wnt-1 cells assessed as cell viability after 72 hrs by DAPI staining based cell counting; type: functional
[23] = Aqueous solubility of the compound in PBS at pH 7.2 by UV spectrophotometric analysis; type: physicochemical
[24] = system: Mus musculus; experiment: Toxicity in ICR-SCIDS mouse harboring xenograft assessed as decreased physical activity at 20 mg/kg, iv qd administered alternate days for a total of 15 doses measured on day 9; type: organism-based; design: dose 20 mg/kg, route intravenous; details: in vivo
[25] = system: Mus musculus; experiment: Toxicity in ICR-SCIDS mouse harboring xenograft assessed as exhibiting symptoms of dehydration at 20 mg/kg, iv qd administered alternate days for a total of 15 doses measured on day 9; type: organism-based; design: dose 20 mg/kg, route intravenous; details: in vivo
[26] = system: Mus musculus; experiment: Toxicity in ICR-SCIDS mouse assessed as decrease in body weight at 20 mg/kg, iv qd administered at a 25% increment in dose each day for 7 days measured on day 7 relative to body weight on day 1; type: organism-based; design: dose 20 mg/kg, route intravenous; scale not given: the % may be the effect or the level left; details: in vivo, 168 h
[27] = system: KG-1; experiment: Growth inhibition in human KG1 cells expressing p53 gene at 5 uM after 48 hrs by MTT assay; type: functional; details: KG-1, 48 h, read-out: GI
[28] = system: HT-29; experiment: Induction of apoptosis in human HT-29 cells assessed as decrease in ATP level after 72 hrs by luminescence assay; type: functional, cell-based
[29] = system: Mus musculus; experiment: Toxicity in ICR-SCIDS mouse harboring xenograft assessed as occurrence of scruffy coat at 20 mg/kg, iv qd administered alternate days for a total of 15 doses measured on day 9; type: organism-based; design: dose 20 mg/kg, route intravenous; details: in vivo
[30] = system: A549; experiment: Induction of apoptosis in human A549 cells assessed as decrease in ATP level after 72 hrs by luminescence assay; type: functional, cell-based
[31] = system: Mus musculus; experiment: Toxicity in ICR-SCIDS mouse harboring xenograft assessed as body weight loss at 20 mg/kg, iv qd administered alternate days for a total of 15 doses measured on day 9; type: organism-based; design: dose 20 mg/kg, route intravenous; details: in vivo
[32] = system: KG-1; experiment: Induction of apoptosis in human KG1 cells assessed as DNA fragmentation at 5 uM after 48 hrs by acridine orange staining method; type: functional
[33] = system: Mus musculus; experiment: Toxicity in ICR-SCIDS mouse harboring xenograft assessed as occurrence of diarrhea at 20 mg/kg, iv qd administered alternate days for a total of 15 doses measured on day 9; type: organism-based; design: dose 20 mg/kg, route intravenous; details: in vivo
[34] = system: MDA-MB-231; experiment: Growth inhibition of retinoid-resistant human MDA-MB-231 cells expressing p53 and ERbeta gene at 1 uM after 48 hrs by MTT assay; type: functional; details: MDA-MB-231, 48 h, read-out: GI
[35] = system: HT-29; experiment: Induction of apoptosis in human HT-29 cells assessed as decrease in ATP level at 10 uM after 72 hrs by luminescence assay relative to control; type: functional; design: scale not given: the % may be the effect or the level left
[36] = system: MDA-MB-231; experiment: Induction of apoptosis in retinoid-resistant human MDA-MB-231 cells expressing p53 and ERbeta gene assessed as DNA fragmentation at 1 uM after 48 hrs by acridine orange staining method; type: functional
[37] = system: MDA-MB-231; experiment: Induction of apoptosis in retinoid-resistant human MDA-MB-231 cells expressing p53 and Erbeta gene assessed as DNA fragmentation at 0.1 to 1 uM after 48 hrs by acridine orange staining method; type: functional, cell-based
[38] = system: MDA-MB-231; experiment: Growth inhibition of retinoid-resistant human MDA-MB-231 cells expressing p53 and ERbeta gene at 1 uM after 24 hrs by MTT assay; type: functional; details: MDA-MB-231, 24 h, read-out: GI
[39] = system: MDA-MB-231; experiment: Induction of apoptosis in retinoid-resistant human MDA-MB-231 cells expressing p53 and ERbeta gene assessed as DNA fragmentation at 1 uM after 24 hrs by acridine orange staining method; type: functional
[40] = Aqueous solubility of the compound in water at pH 5 by UV spectrophotometric analysis; type: physicochemical
[41] = system: MDA-MB-231; experiment: Growth inhibition of retinoid-resistant human MDA-MB-231 cells expressing p53 and Erbeta gene at 0.1 to 1 uM after 48 hrs by MTT assay; type: functional, cell-based

Row | Activity [1] | Activity [2] | fold change (FC) [4] | fold change (FC) [6] | fold change (FC) [7] | Activity [9] | SMILES | Activity [3] | Activity [8] | Activity [10] | Activity [11] | Activity [12] | Activity [13] | Activity [14] | Activity [15] | Activity [16] | Activity [17] | Activity [18] | Activity [19] | inhibition of growth at 1 µM [20] | Activity [21] | other results
1 | 21% | 78% | 10 | 20 | 50 | 88% | O=C(O)c1ccc2cc(-c3ccc(O)c(C45CC6CC(CC(C6)C4)C5)c3)ccc2c1 [O-DEMETHYLATED ADAPALENE] | 98% | 73% |  |  |  |  |  |  |  |  |  |  |  |  | IC50 [5]: 130 nM
2 |  |  |  |  |  |  | O=C(O)/C=C/c1cnc(-c2ccc(O)c(C34CC5CC(CC(C5)C3)C4)c2)nc1 |  |  | 100% | 5.7% | inactive | 5.7% | 40% | 35% | 35% | Active | 15% | Dose-dependent effect | 100% | Active | IC50 [22]: 60 nM; solubility ([23]; PBS, read-out: solubility): 0.44 µM (≈ 0.166 µg/mL); Activity [24]: Non-toxic; Activity [25]: Non-toxic; Activity [26]: 100.9%; inhibition of growth at 5 µM [27]: 100%; Activity [28]: Dose-dependent effect; Activity [29]: Non-toxic; Activity [30]: Dose-dependent effect; Activity [31]: Non-toxic; Activity [32]: 50%; Activity [33]: Non-toxic
3 | 8% | 85% | 6 | 6 | 25 | 103% | O=C(O)/C=C/c1ccc(-c2ccc(O)c(C34CC5CC(CC(C5)C3)C4)c2)cc1 [ADAROTENE] | 98% | 90% |  |  |  |  |  |  |  |  |  |  |  |  | 
4 |  |  |  |  |  |  | O=C(O)/C=C/c1ccc(-c2ccc(O)c(C34CC5CC(CC(C5)C3)C4)c2)c(Cl)c1 | 94% | 51% | 62.7% | 9.3% | >=40% | 9.3% | 30% | 30% | 30% | Active | 30% | Dose-dependent effect | 44% | Active | inhibition of growth at 1 µM [34]: 43%; Activity [35]: <60%; Activity [36]: 7%; Activity [37]: inactive; inhibition of growth at 1 µM [38]: 8%; IC50 [22]: 281 nM; solubility ([23]; buffer): soluble; Activity [26]: 90.4%; inhibition of growth at 5 µM [27]: 67%; Activity [39]: 3%; solubility [40]: 4.5 µM (≈ 1.84 µg/mL); Activity [28]: Dose-dependent effect; Activity [30]: Dose-dependent effect; growth inhibition (GI) [41]: inactive; Activity [32]: 55%
